Source: ChEMBL document CHEMBL1130869, “Peptide-based inhibitors of the hepatitis C virus serine protease” (Bioorg Med Chem Lett, 1998)
Starred links: 1 amine or outer side, 2 acyl side, 3 side chain; linkers in the order of their positions; H or OH if unused. Non-standard residues stand in square brackets, D forms with d. Residues, ends and D or L forms follow the SMILES beside them. Pen = CC(C)(S)[C@H](N)C(=O)O; Suc = O=C(CCC(=O)[*:2])[*:1]; Tle = CC(C)(C)[C@H](N)C(=O)O; Dap = NC[C@H](N)C(=O)O

Key:
NS3 = NS3 (Hepatitis C virus, UniProt A3EZJ3); test: Inhibitory activity against NS3-4A pep protease; set-up: species or system Hepacivirus hominis
[1] = biological target: Hepatitis C virus serine protease, NS3/NS4A (Hepatitis C virus, UniProt A3EZI9+D2K2A8); test: The apparent Ki value against NS3-4Apep protease; format: protein-complex assay, Hepacivirus hominis; details: read-out: Ki app
Sequence of Hepatitis C virus serine protease, NS3/NS4A (D2K2A8 whole entry): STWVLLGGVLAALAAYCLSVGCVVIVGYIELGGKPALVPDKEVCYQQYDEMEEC
Sequence of Hepatitis C virus serine protease, NS3/NS4A (A3EZI9 whole entry): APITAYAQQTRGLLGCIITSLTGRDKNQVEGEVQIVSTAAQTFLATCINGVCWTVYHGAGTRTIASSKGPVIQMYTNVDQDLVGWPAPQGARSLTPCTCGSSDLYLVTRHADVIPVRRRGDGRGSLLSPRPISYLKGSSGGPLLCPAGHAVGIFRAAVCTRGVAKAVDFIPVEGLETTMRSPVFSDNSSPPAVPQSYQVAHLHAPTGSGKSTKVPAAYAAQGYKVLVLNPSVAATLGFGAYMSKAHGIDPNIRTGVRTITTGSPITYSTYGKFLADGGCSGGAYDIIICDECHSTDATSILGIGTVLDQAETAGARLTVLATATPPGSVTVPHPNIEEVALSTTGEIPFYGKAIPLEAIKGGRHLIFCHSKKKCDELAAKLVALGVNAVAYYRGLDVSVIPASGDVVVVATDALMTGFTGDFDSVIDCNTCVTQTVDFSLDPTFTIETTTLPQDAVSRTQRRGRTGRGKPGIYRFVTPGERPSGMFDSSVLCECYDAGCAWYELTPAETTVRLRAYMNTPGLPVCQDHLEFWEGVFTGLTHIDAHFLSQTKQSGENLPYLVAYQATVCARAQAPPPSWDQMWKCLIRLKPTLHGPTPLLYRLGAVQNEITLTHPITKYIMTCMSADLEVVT

Sequence of NS3 (A3EZJ3 whole entry): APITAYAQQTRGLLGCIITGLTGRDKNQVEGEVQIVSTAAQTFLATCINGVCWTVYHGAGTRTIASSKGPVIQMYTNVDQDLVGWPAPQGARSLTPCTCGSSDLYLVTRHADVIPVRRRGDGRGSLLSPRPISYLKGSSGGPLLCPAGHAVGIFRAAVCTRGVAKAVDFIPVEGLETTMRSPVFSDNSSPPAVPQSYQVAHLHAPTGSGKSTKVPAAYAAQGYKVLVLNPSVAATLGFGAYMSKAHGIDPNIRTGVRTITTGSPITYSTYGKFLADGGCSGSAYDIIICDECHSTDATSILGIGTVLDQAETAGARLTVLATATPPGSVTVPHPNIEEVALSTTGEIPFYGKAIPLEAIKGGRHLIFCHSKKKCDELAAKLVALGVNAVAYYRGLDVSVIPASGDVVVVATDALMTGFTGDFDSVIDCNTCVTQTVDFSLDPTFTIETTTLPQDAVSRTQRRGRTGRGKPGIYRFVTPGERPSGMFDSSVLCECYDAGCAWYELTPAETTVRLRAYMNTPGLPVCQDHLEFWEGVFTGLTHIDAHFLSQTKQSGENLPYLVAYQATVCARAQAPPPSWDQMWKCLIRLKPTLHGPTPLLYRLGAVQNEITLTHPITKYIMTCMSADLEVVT

In the case of CC[C@H](C)[C@H](NC(=O)[C@@H](NC(=O)[C@H](CC(=O)O)NC(C)=O)C(C)C)C(=O)N[C@H](C(=O)N1CCC[C@H]1C(=O)N[C@@H](CS)C(=O)O)C(C)C, the IC50 (NS3) is reported as 52 µM.
With CC[C@H](C)[C@H](NC(=O)[C@H](CC(=O)O)NC(=O)CCC(=O)O)C(=O)N[C@H](C(=O)N1CCC[C@H]1C(=O)N[C@@H](CS)C(=O)O)C(C)C the IC50 (NS3) was 33 µM.
Molecule CC[C@H](C)[C@H](NC(=O)[C@H](CC(=O)O)NC(=O)[C@H](C)NC(C)=O)C(=O)N[C@H](C(=O)N1CCC[C@H]1C(=O)N[C@@H](CS)C(=O)O)C(C)C has an IC50 (NS3) of 200 µM.
For CC[C@@H](C)[C@@H](NC(=O)[C@H](CC(=O)O)NC(=O)[C@H](CC(=O)O)NC(C)=O)C(=O)N[C@H](C(=O)N1CCC[C@H]1C(=O)N[C@@H](CS)C(=O)O)C(C)C, the IC50 (NS3) was 800 µM.
For CC[C@H](C)[C@H](NC(=O)[C@H](CC(=O)O)NC(=O)[C@@H](CC(=O)O)NC(C)=O)C(=O)N[C@H](C(=O)N1CCC[C@H]1C(=O)N[C@@H](CS)C(=O)O)C(C)C, the IC50 (NS3) was 40 µM.
CC[C@H](C)[C@H](NC(=O)[C@H](CC(=O)O)NC(=O)[C@H](CC(=O)O)NC(C)=O)C(=O)N[C@H](C(=O)N1CCC[C@H]1C(=O)N[C@@H](CS)C(=O)O)C(C)C [listing 1 of 2 here] was tested, and the IC50 (NS3) was 28 µM.
CC[C@H](C)[C@H](NC(=O)[C@H](CC(=O)O)NC(=O)[C@H](CC(=O)O)NC(C)=O)C(=O)N[C@H](C(=O)N1CCC[C@H]1C(=O)N[C@@H](CS)C(=O)O)C(C)C [listing 2 of 2 here] was tested, and the IC50 (NS3) was > 1000 µM.
Work on CC[C@H](C)[C@H](NC(=O)[C@H](CC(=O)O)NC(=O)[C@H](CC(=O)O)NC(C)=O)C(=O)N[C@H](C(=O)N1CCC[C@H]1C(=O)N[C@@H](CSC)C(=O)O)C(C)C (Ac-DDIVPC(Me)-OH) yielded an IC50 (NS3) of 160 µM.
In the case of CC[C@H](C)[C@H](NC(=O)[C@H](CC(=O)O)NC(=O)[C@H](CC(=O)O)NC(C)=O)C(=O)N[C@H](C(=O)N1CCC[C@H]1C(=O)N[C@@H](CN)C(=O)O)C(C)C (Ac-DDIVP[Dap]-OH), the IC50 (NS3) is reported as > 1000 µM.
Work on CC[C@H](C)[C@H](NC(=O)[C@H](CC(=O)O)NC(=O)[C@H](CC(=O)O)NC(C)=O)C(=O)N[C@H](C(=O)N1CCC[C@H]1C(=O)N[C@H](C(=O)O)C(C)(C)S)C(C)C (Ac-DDIVP[Pen]-OH) yielded an IC50 (NS3) of 630 µM.
CC[C@H](C)[C@H](NC(=O)[C@@H](NC(=O)[C@H](CC(=O)O)NC(C)=O)C(C)(C)C)C(=O)N[C@H](C(=O)N1CCC[C@H]1C(=O)N[C@@H](CS)C(=O)O)C(C)C (Ac-D[Tle]IVPC-OH) gave an IC50 (NS3) of 20 µM.
For CC[C@H](C)[C@H](NC(=O)CCC(=O)O)C(=O)N[C@H](C(=O)N1CCC[C@H]1C(=O)N[C@@H](CS)C(=O)O)C(C)C (Suc-IVPC-OH), the IC50 (NS3) was 830 µM.
CC[C@H](C)[C@H](NC(=O)C(CC(=O)O)NC(=O)[C@H](CC(=O)O)NC(C)=O)C(=O)N[C@H](C(=O)N1CCC[C@H]1C(=O)N[C@@H](CS)C(=O)O)C(C)C (single isomer, unassigned) was tested, and the IC50 (NS3) was 4 µM and the Ki [1] was 0.6 µM.
With CC[C@H](C)[C@H](NC(=O)[C@H](CC(=O)O)NC(=O)[C@H](CC(=O)O)NC(C)=O)C(=O)N[C@H](C(=O)N1CCC[C@H]1C(=O)NC(CS)C(=O)O)C(C)C (single isomer, unassigned) the IC50 (NS3) was 330 µM.
CC[C@H](C)[C@H](NC(=O)[C@H](CC(=O)O)NC(=O)[C@H](CC(=O)O)NC(C)=O)C(=O)NC(C(=O)N1CCC[C@H]1C(=O)N[C@@H](CS)C(=O)O)C(C)C (single isomer, unassigned) showed an IC50 (NS3) of 830 µM.
For CC[C@H](C)[C@H](NC(=O)C(CC(=O)O)NC(=O)[C@H](C)NC(C)=O)C(=O)N[C@H](C(=O)N1CCC[C@H]1C(=O)N[C@@H](CS)C(=O)O)C(C)C (single isomer, unassigned), the IC50 (NS3) was 200 µM.
In the case of CC[C@H](C)[C@H](NC(=O)C(CC(=O)O)NC(=O)CCC(=O)O)C(=O)N[C@H](C(=O)N1CCC[C@H]1C(=O)N[C@@H](CS)C(=O)O)C(C)C (single isomer, unassigned), the IC50 (NS3) is reported as 76 µM.
For CC[C@H](C)[C@H](NC(=O)C(NC(=O)[C@H](CC(=O)O)NC(C)=O)C(C)C)C(=O)N[C@H](C(=O)N1CCC[C@H]1C(=O)N[C@@H](CS)C(=O)O)C(C)C (single isomer, unassigned), the IC50 (NS3) was 7.5 µM.
For Ac-DAIVPC-OH, the IC50 (NS3) was 140 µM.
Ac-DDAVPC-OH gave an IC50 (NS3) of 580 µM.
Ac-DDIAPC-OH gave an IC50 (NS3) of 890 µM.
With Ac-DDIVAC-OH the IC50 (NS3) was 93 µM.
For Ac-DDIVPA-OH, the IC50 (NS3) was 710 µM.
Ac-DDIVPM-OH gave an IC50 (NS3) of 500 µM.
With Ac-DDIVPS-OH the IC50 (NS3) was > 1000 µM.
Ac-DIVPC-OH showed an IC50 (NS3) of 130 µM.
For H-DDIVPC-OH, the IC50 (NS3) was 71 µM and the Ki [1] was 14 µM.
In the case of H-GEAGDDIVPC-OH, the IC50 (NS3) is reported as 52 µM.
